B1: Saccharomyces cerevisiae chitin synthase 1 (Chs1), wild type, C-terminal triple FLAG (enzyme, S. cerevisiae)
chain: MSDQNNRSRNEYHSNRKNEPSYELQNAHSGLFHSSNEELTNRNQRYTNQNASMGSFTPVQSLQFPEQSQQTNMLYNGDDGNNNTINDNERDIYGGFVNHHRQRPPPATAEYNDVFNTNSQQLPSEHQYNNVPSYPLPSINVIQTTPELIHNGSQTMATPIERPFFNENDYYYNNRNSRTSPSIASSSDGYADQEARPILEQPNNNMNSGNIPQYHDQPFGYNNGYHGLQAKDYYDDPEGGYIDQRGDDYQINSYLGRNGEMVDPYDYENSLRHMTPMERREYLHDDSRPVNDGKEELDSVKSGYSHRDLGEYDKDDFSRDDEYDDLNTIDKLQFQANGVPASSSVSSIGSKESDIIVSNDNLTANRALKRSGTEIRKFKLWNGNFVFDSPISKTLLDQYATTTENANTLPNEFKFMRYQAVTCEPNQLAEKNFTVRQLKYLTPRETELMLVVTMYNEDHILLGRTLKGIMDNVKYMVKKKNSSTWGPDAWKKIVVCIISDGRSKINERSLALLSSLGCYQDGFAKDEINEKKVAMHVYEHTTMINITNISESEVSLECNQGTVPIQLLFCLKEQNQKKINSHRWAFEGFAELLRPNIVTLLDAGTMPGKDSIYQLWREFRNPNVGGACGEIRTDLGKRFVKLLNPLVASQNFEYKMSNILDKTTESNFGFITVLPGAFSAYRFEAVRGQPLQKYFYGEIMENEGFHFFSSNMYLAEDRILCFEVVTKKNCNWILKYCRSSYASTDVPERVPEFILQRRRWLNGSFFASVYSFCHFYRVWSSGHNIGRKLLLTVEFFYLFFNTLISWFSLSSFFLVFRILTVSIALAYHSAFNVLSVIFLWLYGICTLSTFILSLGNKPKSTEKFYVLTCVIFAVMMIYMIFCSIFMSVKSFQNILKNDTISFEGLITTEAFRDIVISLGSTYCLYLISSIIYLQPWHMLTSFIQYILLSPSYINVLNIYAFCNVHDLSWGTKGAMANPLGKINTTEDGTFKMEVLVSSSEIQANYDKYLKVLNDFDPKSESRPTEPSYDEKKTGYYANVRSLVIIFWVITNFIIVAVVLETGGIADYIAMKSISTDDTLETAKKAEIPLMTSKASIYFNVILWLVALSALIRFIGCSIYMIVRFFKKVTFR
notes: Chitin synthase 1 (Chs1), S. cerevisiae, UniProt P08004; the first 374 residues (except 245-271) are not seen in the maps; the purified sample was partly digested in the N-terminal region by endogenous protease (a smaller species lacks about the N-terminal 150 residues); also called ScChs1; scChs1

Columns and labels:
Chs1 (chitin synthase 1) = biological target: T1, Chs1 (chitin synthase 1) (Saccharomyces cerevisiae, UniProt P08004); assay: cryo-EM structure at […] Å with UDP-GlcNAc (also with UDP, 8K3U); format: binding
T1 construct: Chs1 (1131 residues) with C-terminal triple-FLAG; N-terminal ~374 residues largely disordered; homodimer
T1 sequence (P08004 1-1131): B1 chain

[1] = biological target: the molecule itself; assay: cryo-EM structure; single-particle cryo-EM of purified Chs1 (~3 mg/mL) in LMNG/GDN/CHS, alone or with 5 mM UDP-GlcNAc, GlcNAc, UDP, Nikkomycin Z or Polyoxin B on ice; maps refined with C2 symmetry

| Molecule | cryo-EM structure at 2.9 Å with UDP-GlcNAc (also with UDP, 8K3U) (Chs1 (chitin synthase 1)) | stoichiometry N [1] |
| --- | --- | --- |
| CC(=O)N[C@H]1C(O)O[C@H](CO)[C@@H](O)[C@@H]1O (some centres unmarked) [GlcNAc] | The GlcNAc ring is vertically inserted into a slit between the indole ring of W760 and the pyrrolidine ring | – |
| B1 | – | 2 |

Source: PMC10409773, “Structure, catalysis, chitin transport, and selective inhibition of chitin synthase” (Nature Communications, 2023)
